Source: PubChem BioAssay (NCI)
Where “and” joins values, the source holds several entries; their conditions need not be identical. Equal entries are not always repeated.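 Compound exposure: 48 hours, 5 concentrations, 96-well plates. GI50: concentration for 50% inhibition of growth. TGI is the concentration that stops growth completely.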

Columns and labels:
Assay in all cases: DTP human tumour cell line panel, 48 h
SF-268 CNS = test system: SF-268 CNS
SF-295 CNS = test system: SF-295 CNS
A498 renal = test system: A498 renal
SK-OV-3 ovarian = test system: SK-OV-3 ovarian
RXF 393 renal = test system: RXF 393 renal
SNB-19 CNS = test system: SNB-19 CNS
SW-620 colon = test system: SW-620 colon
MDA-MB-435 = test system: MDA-MB-435
EKVX NSCLC = test system: EKVX NSCLC
COLO 205 colon = test system: COLO 205 colon

CN1CC=C(c2cc(NC(=O)Nc3ccc(Oc4ccnc(NC(=O)C5CC5)c4)c(F)c3)cc(C(F)(F)F)c2)CC1
GI50 (SF-268 CNS): 0.206 µM | TGI (SF-268 CNS): 1.41 µM | GI50 (SF-295 CNS): 0.933 µM | TGI (SF-295 CNS): 2.94 µM | GI50 (A498 renal): 2.05 µM | TGI (A498 renal): 3.9 µM | GI50 (SK-OV-3 ovarian): 2.74 µM | TGI (SK-OV-3 ovarian): 7.25 µM | GI50 (RXF 393 renal): 0.172 µM | TGI (RXF 393 renal): 0.411 µM | GI50 (SNB-19 CNS): 0.227 µM | TGI (SNB-19 CNS): 1.48 µM | GI50 (SW-620 colon): 0.196 µM | TGI (SW-620 colon): 0.556 µM | GI50 (MDA-MB-435): 0.429 µM | TGI (MDA-MB-435): 1.17 µM | GI50 (EKVX NSCLC): 0.359 µM | TGI (EKVX NSCLC): 1.91 µM

N#CC(C#N)=NNc1ccc2cn[nH]c2c1
TGI (SF-268 CNS): > 100 µM | TGI (SF-295 CNS): > 100 µM | TGI (A498 renal): > 100 µM | TGI (COLO 205 colon): > 100 µM | TGI (SK-OV-3 ovarian): > 100 µM | TGI (RXF 393 renal): 55.4 µM | TGI (SNB-19 CNS): > 100 µM | TGI (SW-620 colon): > 100 µM | TGI (MDA-MB-435): > 100 µM | TGI (EKVX NSCLC): > 100 µM

O=C1Nc2ccccc2/C1=C\c1c(-c2ccccc2)nc2sccn12
GI50 (SF-268 CNS): 5.86 µM | TGI (SF-268 CNS): 57.1 µM | GI50 (SF-295 CNS): 0.797 µM | TGI (SF-295 CNS): 3.24 µM | GI50 (A498 renal): 0.927 µM | TGI (A498 renal): 5.33 µM | GI50 (COLO 205 colon): 2.23 µM | TGI (COLO 205 colon): 16.4 µM | GI50 (SK-OV-3 ovarian): 2.91 µM | TGI (SK-OV-3 ovarian): 12.7 µM | GI50 (RXF 393 renal): 3.35 µM | TGI (RXF 393 renal): 26.6 µM | GI50 (SNB-19 CNS): 3.53 µM | TGI (SNB-19 CNS): > 43.7 µM | GI50 (SW-620 colon): 2.16 µM | TGI (SW-620 colon): 27.1 µM | GI50 (MDA-MB-435): 0.354 µM | TGI (MDA-MB-435): 0.943 µM | GI50 (EKVX NSCLC): 7.84 µM | TGI (EKVX NSCLC): 32.6 µM

CS(=O)(=O)CCNCc1ccc(-c2ccc3ncnc(Nc4ccc(OCc5cccc(F)c5)c(Cl)c4)c3c2)o1
GI50 (SF-268 CNS): > 10 µM and 5.18 µM and 11.6 µM | TGI (SF-268 CNS): > 10 µM and > 100 µM and 43.4 µM | GI50 (SF-295 CNS): 6.84 µM and 5.32 µM and 3.54 µM | TGI (SF-295 CNS): > 10 µM and > 100 µM and 24.8 µM | GI50 (A498 renal): 2.32 µM and 1.98 µM and 3.67 µM | TGI (A498 renal): > 10 µM and > 33 µM and 23.8 µM | GI50 (COLO 205 colon): > 10 µM and > 78.8 µM and 10.3 µM | TGI (COLO 205 colon): > 10 µM and > 100 µM and 33.3 µM | GI50 (SK-OV-3 ovarian): 0.0681 µM and 0.0409 µM and 0.0441 µM | TGI (SK-OV-3 ovarian): > 10 µM and > 100 µM and 31.7 µM | GI50 (RXF 393 renal): 8.01 µM and 2.05 µM and 1.79 µM | TGI (RXF 393 renal): > 10 µM and 4.5 µM and 7.05 µM | GI50 (SNB-19 CNS): > 10 µM and 99.6 µM and 17.7 µM | TGI (SNB-19 CNS): > 10 µM and > 100 µM and 66.7 µM | GI50 (SW-620 colon): > 10 µM and 1.94 µM and 3.82 µM | TGI (SW-620 colon): > 10 µM and 3.6 µM and 9.46 µM | GI50 (MDA-MB-435): > 10 µM and 4.38 µM and 7.84 µM | TGI (MDA-MB-435): > 10 µM and > 30.8 µM and 34.1 µM | GI50 (EKVX NSCLC): 0.374 µM and 0.0822 µM and 0.107 µM | TGI (EKVX NSCLC): > 10 µM and > 100 µM and 41.7 µM

COc1cc2c(NCCCCCO)ncnc2c(OC)c1OC
TGI (SF-268 CNS): > 100 µM | TGI (SF-295 CNS): > 100 µM | TGI (A498 renal): > 100 µM | TGI (COLO 205 colon): > 100 µM | TGI (SK-OV-3 ovarian): > 100 µM | TGI (RXF 393 renal): > 100 µM | TGI (SNB-19 CNS): > 100 µM | TGI (SW-620 colon): > 100 µM | TGI (MDA-MB-435): > 100 µM | TGI (EKVX NSCLC): > 100 µM

N#CC1C[C@@H]2CC3(CCC2CN1C(=O)c1ccccc1)OCCO3 (some centres undefined)
TGI (SF-268 CNS): > 100 µM | TGI (SF-295 CNS): > 100 µM | TGI (A498 renal): > 100 µM | TGI (COLO 205 colon): > 100 µM | TGI (SK-OV-3 ovarian): > 100 µM | TGI (RXF 393 renal): > 100 µM | TGI (SNB-19 CNS): > 100 µM | TGI (SW-620 colon): > 100 µM | GI50 (MDA-MB-435): > 100 µM | TGI (MDA-MB-435): > 100 µM | TGI (EKVX NSCLC): > 100 µM

Oc1cc(N2CC2)c(O)cc1N1CC1
GI50 (SF-268 CNS): 0.585 µM | TGI (SF-268 CNS): 7.97 µM | GI50 (SF-295 CNS): 0.377 µM | TGI (SF-295 CNS): 5.32 µM | GI50 (A498 renal): 0.581 µM | TGI (A498 renal): 2.55 µM | GI50 (COLO 205 colon): 1.02 µM | TGI (COLO 205 colon): 2.21 µM | GI50 (SK-OV-3 ovarian): 1.54 µM | TGI (SK-OV-3 ovarian): 8.77 µM | GI50 (RXF 393 renal): 0.358 µM | TGI (RXF 393 renal): 1.21 µM | GI50 (SNB-19 CNS): 1.78 µM | TGI (SNB-19 CNS): 13.5 µM | GI50 (SW-620 colon): 0.372 µM | TGI (SW-620 colon): 7.37 µM | GI50 (MDA-MB-435): 1.37 µM | TGI (MDA-MB-435): 3.32 µM | GI50 (EKVX NSCLC): 2.62 µM | TGI (EKVX NSCLC): 9.87 µM

ClCCCSSCCCCl
TGI (SF-268 CNS): > 100 µM | TGI (SF-295 CNS): > 100 µM | TGI (A498 renal): > 100 µM | TGI (COLO 205 colon): > 72.5 µM | TGI (SK-OV-3 ovarian): > 100 µM | TGI (RXF 393 renal): > 100 µM | TGI (SNB-19 CNS): > 100 µM | TGI (SW-620 colon): > 100 µM | TGI (MDA-MB-435): > 60.5 µM | TGI (EKVX NSCLC): > 100 µM

CN1CCN(C(=O)[C@@]2(C)CC[C@]3(C)CC[C@]4(C)C(=CC[C@@H]5[C@@]6(C)CCC(=O)NC(C)(C)[C@@H]6CC[C@]54C)[C@@H]3C2)CC1
GI50 (SF-268 CNS): 3.04 µM | TGI (SF-268 CNS): 14.4 µM | GI50 (SF-295 CNS): 1.53 µM | TGI (SF-295 CNS): 3.07 µM | GI50 (A498 renal): 2.68 µM | TGI (A498 renal): 12.1 µM | GI50 (COLO 205 colon): 1.54 µM | TGI (COLO 205 colon): 3.18 µM | GI50 (SK-OV-3 ovarian): 1.84 µM | TGI (SK-OV-3 ovarian): 3.87 µM | GI50 (RXF 393 renal): 1.06 µM | TGI (RXF 393 renal): 2.52 µM | GI50 (SNB-19 CNS): 1.81 µM | TGI (SNB-19 CNS): 3.56 µM | GI50 (SW-620 colon): 1.87 µM | TGI (SW-620 colon): 3.93 µM | GI50 (MDA-MB-435): 1.62 µM | TGI (MDA-MB-435): 3.3 µM | GI50 (EKVX NSCLC): 2.74 µM | TGI (EKVX NSCLC): 12.8 µM

COC(=O)C12CCC(C)(C)CC1C1=CCC3C4(C)CC(O)C(O)C(C)(C(=O)OC)C4CCC3(C)C1(CO)CC2 (centres undefined)
TGI (SF-268 CNS): 44.9 µM | TGI (SF-295 CNS): 28.8 µM | TGI (A498 renal): 33.2 µM | TGI (COLO 205 colon): 29.1 µM | TGI (SK-OV-3 ovarian): 31.3 µM | TGI (RXF 393 renal): 19.5 µM | TGI (SNB-19 CNS): 37 µM | TGI (SW-620 colon): 27.5 µM | TGI (MDA-MB-435): 32.4 µM | TGI (EKVX NSCLC): 44.1 µM

CNS(=O)(=O)OCC1OC(n2cnc3cncnc32)C(O)C1O (centres undefined)
GI50 (SF-268 CNS): > 100 µM | TGI (SF-268 CNS): > 100 µM | GI50 (SF-295 CNS): > 100 µM | TGI (SF-295 CNS): > 100 µM | GI50 (A498 renal): > 100 µM | TGI (A498 renal): > 100 µM | GI50 (COLO 205 colon): > 100 µM | TGI (COLO 205 colon): > 100 µM | GI50 (SK-OV-3 ovarian): > 100 µM | TGI (SK-OV-3 ovarian): > 100 µM | GI50 (RXF 393 renal): > 100 µM | TGI (RXF 393 renal): > 100 µM | GI50 (SNB-19 CNS): > 100 µM | TGI (SNB-19 CNS): > 100 µM | GI50 (SW-620 colon): > 100 µM | TGI (SW-620 colon): > 100 µM | GI50 (MDA-MB-435): > 100 µM | TGI (MDA-MB-435): > 100 µM | GI50 (EKVX NSCLC): > 100 µM | TGI (EKVX NSCLC): > 100 µM
